PubChem BioAssay AID330 (DTP/NCI, 2004)
Several values for one entry are separate records, joined by “and”; a condition that tells them apart may be missing. Equal entries are not always repeated. Inconclusive results and toxic doses are left out.

Tested on: P388 leukemia ip, CD2F1 mice, survival T/C
Assay: NCI In Vivo Anticancer Drug Screen. Data for tumor model P388 Leukemia (intraperitoneal) in CD2F1 (CDF1) mice
Conditions: endpoint: median survival time, higher = longer survival
Summary of the method: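 Mice carrying the transplanted tumor received test compound or vehicle. Survival was recorded in each group, and the value is the treated-group measurement divided by that of the vehicle-treated control group.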

O=C1c2c(O)ccc(O)c2C(=O)c2c(NCCNCCO)ccc(NCCNCCO)c21
T/C (dose: 0.02 mg/kg/injection, schedule: Q04DX003 (ip), vehicle: saline): 120 % of control | T/C (dose: 0.06 mg/kg/injection, schedule: Q01DX009 (ip), vehicle: saline): 175 % of control and 208 % of control | T/C (dose: 0.06 mg/kg/injection, schedule: Q04DX003 (ip), vehicle: saline): 218 % of control | T/C (dose: 0.12 mg/kg/injection, schedule: Q01DX009 (ip), vehicle: acid diluted with saline): 179 % of control and 190 % of control | T/C (dose: 0.12 mg/kg/injection, schedule: Q01DX009 (ip), vehicle: other): 165 % of control | T/C (dose: 0.12 mg/kg/injection, schedule: Q01DX009 (ip), vehicle: saline): 200 % of control and 220 % of control | T/C (dose: 0.12 mg/kg/injection, schedule: Q04DX003 (ip), vehicle: saline): 160 % of control | T/C (dose: 0.13 mg/kg/injection, schedule: Q01DX009 (ip), vehicle: acid diluted with saline): 150 % of control and 176 % of control | T/C (dose: 0.2 mg/kg/injection, schedule: Q01DX009 (ip), vehicle: acid diluted with saline): 250 % of control | T/C (dose: 0.2 mg/kg/injection, schedule: Q01DX009 (ip), vehicle: water): 172 % of control | T/C (dose: 0.25 mg/kg/injection, schedule: Q01DX005 (ip), vehicle: acid diluted with saline): 270 % of control | T/C (dose: 0.25 mg/kg/injection, schedule: Q04DX003 (ip), vehicle: saline): 182 % of control | T/C (dose: 0.32 mg/kg/injection, schedule: Q01DX009 (ip), vehicle: acid diluted with saline): 225 % of control | T/C (dose: 0.32 mg/kg/injection, schedule: Q01DX009 (sc), vehicle: acid diluted with saline): 122 % of control | T/C (dose: 0.39 mg/kg/injection, schedule: Q01DX009 (ip), vehicle: acid diluted with saline): 272 % of control | T/C (dose: 0.39 mg/kg/injection, schedule: Q01DX009 (ip), vehicle: water): 245 % of control | T/C (dose: 0.5 mg/kg/injection, schedule: Q01DX005 (ip), vehicle: acid diluted with saline): 270 % of control | T/C (dose: 0.5 mg/kg/injection, schedule: Q01DX005 (iv), vehicle: acid diluted with saline): 99 % of control | T/C (dose: 0.5 mg/kg/injection, schedule: Q01DX009 (ip), vehicle: other): 238 % of control and 333 % of control | T/C (dose: 0.5 mg/kg/injection, schedule: Q04DX003 (ip), vehicle: saline): 179 % of control | T/C (dose: 0.54 mg/kg/injection, schedule: Q01DX009 (ip), vehicle: acid diluted with saline): 234 % of control | T/C (dose: 0.54 mg/kg/injection, schedule: Q01DX009 (sc), vehicle: acid diluted with saline): 153 % of control | T/C (dose: 0.75 mg/kg/injection, schedule: Q04DX002 (ip), vehicle: acid diluted with saline): 209 % of control | T/C (dose: 0.75 mg/kg/injection, schedule: Q04DX003 (ip), vehicle: acid diluted with saline): 123 % of control | T/C (dose: 0.78 mg/kg/injection, schedule: Q01DX009 (ip), vehicle: water): 271 % of control | T/C (dose: 0.78 mg/kg/injection, schedule: Q04DX003 (ip), vehicle: acid diluted with saline): 409 % of control | T/C (dose: 0.9 mg/kg/injection, schedule: Q01DX009 (ip), vehicle: acid diluted with saline): 405 % of control | T/C (dose: 0.9 mg/kg/injection, schedule: Q01DX009 (sc), vehicle: acid diluted with saline): 216 % of control | T/C (dose: 1.0 mg/kg/injection, schedule: Q01DX005 (ip), vehicle: acid diluted with saline): 270 % of control | T/C (dose: 1.0 mg/kg/injection, schedule: Q04DX003 (ip), vehicle: saline): 151 % of control and 188 % of control and 208 % of control | T/C (dose: 1.04 mg/kg/injection, schedule: Q04DX003 (ip), vehicle: acid diluted with saline): 252 % of control | T/C (dose: 1.04 mg/kg/injection, schedule: Q04DX003 (iv), vehicle: acid diluted with saline): 162 % of control | T/C (dose: 1.08 mg/kg/injection, schedule: Q01DX009 (ip), vehicle: acid diluted with saline): 409 % of control | T/C (dose: 1.3 mg/kg/injection, schedule: Q04DX003 (ip), vehicle: acid diluted with saline): 302 % of control | T/C (dose: 1.5 mg/kg/injection, schedule: Q01DX009 (ip), vehicle: acid diluted with saline): 405 % of control | T/C (dose: 1.5 mg/kg/injection, schedule: Q01DX009 (sc), vehicle: acid diluted with saline): 272 % of control | T/C (dose: 1.5 mg/kg/injection, schedule: Q04DX002 (ip), vehicle: acid diluted with saline): 176 % of control and 201 % of control | T/C (dose: 1.56 mg/kg/injection, schedule: Q01DX009 (ip), vehicle: water): 218 % of control | T/C (dose: 1.73 mg/kg/injection, schedule: Q04DX003 (ip), vehicle: acid diluted with saline): 333 % of control | T/C (dose: 1.73 mg/kg/injection, schedule: Q04DX003 (iv), vehicle: acid diluted with saline): 227 % of control | T/C (dose: 1.8 mg/kg/injection, schedule: Q01DX009 (ip), vehicle: acid diluted with saline): 225 % of control | T/C (dose: 2.0 mg/kg/injection, schedule: Q01DX009 (ip), vehicle: other): 207 % of control | T/C (dose: 2.0 mg/kg/injection, schedule: Q04DX003 (ip), vehicle: saline): 164 % of control and 172 % of control and 207 % of control | T/C (dose: 2.5 mg/kg/injection, schedule: Q01DX009 (ip), vehicle: acid diluted with saline): 180 % of control | T/C (dose: 2.88 mg/kg/injection, schedule: Q04DX003 (ip), vehicle: acid diluted with saline): 333 % of control | T/C (dose: 3.0 mg/kg/injection, schedule: Q01DX001 (ip), vehicle: acid diluted with saline): 333 % of control | T/C (dose: 3.0 mg/kg/injection, schedule: Q01DX009 (ip), vehicle: acid diluted with saline): 102 % of control | T/C (dose: 3.0 mg/kg/injection, schedule: Q04DX002 (ip), vehicle: acid diluted with saline): 260 % of control and 288 % of control | T/C (dose: 3.24 mg/kg/injection, schedule: Q01DX001 (iv), vehicle: acid diluted with saline): 178 % of control | T/C (dose: 3.3 mg/kg/injection, schedule: Q01DX001 (ip), vehicle: acid diluted with saline): 247 % of control | T/C (dose: 4.0 mg/kg/injection, schedule: Q01DX001 (ip), vehicle: acid diluted with saline): 187 % of control | T/C (dose: 4.0 mg/kg/injection, schedule: Q01DX001 (iv), vehicle: acid diluted with saline): 117 % of control | T/C (dose: 4.0 mg/kg/injection, schedule: Q01DX009 (ip), vehicle: other): 99 % of control | T/C (dose: 4.0 mg/kg/injection, schedule: Q04DX003 (ip), vehicle: saline): 166 % of control and 223 % of control and 233 % of control | T/C (dose: 4.4 mg/kg/injection, schedule: Q01DX001 (ip), vehicle: acid diluted with saline): 229 % of control | T/C (dose: 4.8 mg/kg/injection, schedule: Q04DX003 (ip), vehicle: acid diluted with saline): 180 % of control | T/C (dose: 5.0 mg/kg/injection, schedule: Q01DX001 (ip), vehicle: other): 250 % of control | T/C (dose: 5.4 mg/kg/injection, schedule: Q01DX001 (ip), vehicle: acid diluted with saline): 405 % of control | T/C (dose: 5.4 mg/kg/injection, schedule: Q01DX001 (iv), vehicle: acid diluted with saline): 270 % of control | T/C (dose: 6.0 mg/kg/injection, schedule: Q04DX002 (ip), vehicle: acid diluted with saline): 192 % of control and 260 % of control | T/C (dose: 6.7 mg/kg/injection, schedule: Q01DX001 (ip), vehicle: acid diluted with saline): 293 % of control | T/C (dose: 8.0 mg/kg/injection, schedule: Q01DX001 (ip), vehicle: acid diluted with saline): 171 % of control | T/C (dose: 8.0 mg/kg/injection, schedule: Q01DX001 (iv), vehicle: acid diluted with saline): 198 % of control | T/C (dose: 8.0 mg/kg/injection, schedule: Q04DX003 (ip), vehicle: acid diluted with saline): 107 % of control | T/C (dose: 8.0 mg/kg/injection, schedule: Q04DX003 (ip), vehicle: saline): 164 % of control and 232 % of control | T/C (dose: 8.0 mg/kg/injection, schedule: Q04DX003 (iv), vehicle: acid diluted with saline): 99 % of control | T/C (dose: 9.0 mg/kg/injection, schedule: Q01DX001 (ip), vehicle: acid diluted with saline): 261 % of control | T/C (dose: 9.0 mg/kg/injection, schedule: Q01DX001 (iv), vehicle: acid diluted with saline): 405 % of control | T/C (dose: 10.0 mg/kg/injection, schedule: Q04DX003 (ip), vehicle: acid diluted with saline): 180 % of control | T/C (dose: 12.0 mg/kg/injection, schedule: Q04DX002 (ip), vehicle: acid diluted with saline): 118 % of control | T/C (dose: 15.0 mg/kg/injection, schedule: Q01DX001 (ip), vehicle: other): 302 % of control | T/C (dose: 15.0 mg/kg/injection, schedule: Q01DX001 (iv), vehicle: acid diluted with saline): 405 % of control | T/C (dose: 16.0 mg/kg/injection, schedule: Q01DX001 (ip), vehicle: acid diluted with saline): 173 % of control | T/C (dose: 16.0 mg/kg/injection, schedule: Q01DX001 (iv), vehicle: acid diluted with saline): 101 % of control | T/C (dose: 16.0 mg/kg/injection, schedule: Q04DX003 (ip), vehicle: saline): 101 % of control and 117 % of control | T/C (dose: 25.0 mg/kg/injection, schedule: Q01DX001 (ip), vehicle: acid diluted with saline): 225 % of control | T/C (dose: 32.0 mg/kg/injection, schedule: Q01DX001 (ip), vehicle: acid diluted with saline): 270 % of control | T/C (dose: 32.0 mg/kg/injection, schedule: Q04DX003 (ip), vehicle: saline): 100 % of control | T/C (dose: 64.0 mg/kg/injection, schedule: Q01DX001 (ip), vehicle: acid diluted with saline): 270 % of control | T/C (dose: 7.0 micrograms/kg/injection, schedule: Q04DX003 (ip), vehicle: saline): 107 % of control | T/C (dose: 15.0 micrograms/kg/injection, schedule: Q04DX003 (ip), vehicle: saline): 107 % of control | T/C (dose: 31.0 micrograms/kg/injection, schedule: Q04DX003 (ip), vehicle: saline): 120 % of control
